In US20260274876A1, “3-PYRROLIDINE-INDOLE DIMERS AS SEROTONERGIC AGENTS USEFUL FOR THE TREATMENT OF DISORDERS RELATED THERETO” (MINDSET PHARMA INC., priority 2022, published 2026):

Legend:
human 5-HT2A receptor = human 5-HT2A receptor (Homo sapiens, UniProt P28223); experiment: Human 5-HT2A radioligand binding assay ([3H]-ketanserin)
Experimental: The objective of this study was to evaluate the binding properties of exemplary compounds of Formula I on 5-hydroxytryptamine receptor 2A (5-HT2A).
• 1. The assay buffer was prepared following the table below.
• 2. 8 doses of reference and test compounds starting from 10 mM stock solution as required was prepared by 5-fold serial dilutions with 100% (v/v) DMSO. • 3. UniFilter-96 GF/B plate was pretreated: • i. 50 μl/well of 0.5% (v/v) PEI was added to […]. The plates were sealed and incubated at […] for 3 hrs. • ii. After incubation, the plates were washed 3 times with ice-cold wash buffer (50 mM Tris, pH7.4). • 4. The assay plate was prepared: • i. Cell membrane was diluted with assay buffer and 330 μl/well was added to 96 round deep well plates to reach a concentration of 20 μg/well. • ii. 8 concentrations of reference or test compounds were prepared and 110 μl/well was added to 96 round deep well plates. • iii. [3H]-ketanserin was diluted with assay buffer to 5 nM (5×final concentration) and 110 μl/well was added to 96 round deep well plates. • 5. The plate was centrifuged at 1000 rpm for 30 secs and then agitated at 600 rpm, R.T. for 5 min. • 6. The plates were sealed and the plate incubated at 279C for 90 min. • 7. The incubation was stopped by vacuum filtration onto GF/B filter plates followed by 4 times washing with ice-cold wash buffer (50 mM Tris, pH7.4). • 8. The plates were dried at 379C for 45 min. • 8. The filter plates were sealed and 40 μl/well of scintillation cocktail was added. • 10. The plate was read by using a Microbeta^2 microplate counter.
• 1. For reference and test compounds, the results were expressed as % Inhibition, using the normalization equation: N=100−100×(U−C2)/(C1−C2), where U is the unknown value, C1 is the average of high controls, and C2 is the average of low controls. • 2. The IC50 was determined by fitting percentage of inhibition as a function of compound concentrations with Hill equation using XLfit.

[1] = Intestinal mucosal permeation using Caco-2 cell monolayers; conditions: human; for Papp A→B at 2 h, 5 µM / Papp B→A at 2 h, 5 µM / efflux ratio at 2 h, 5 μM: Caco-2, pH 7.4
Experimental: Plate was returned to incubator.
Vortexed for 5 minutes. […] Incubated at 37° C. for 30 minutes.

[2] = Liver microsomes stability, mouse; conditions: for half-life at 2 μM / microsomal CLint at 2 μM: male, mouse; for half-life at 2 μM / microsomal CLint at 2 μM / Remaining Percentage (%) after 60 min, Mouse, With cofactors / Remaining Percentage (%) after 60 min, Mouse, Without cofactors: mouse liver microsomes
Experimental: (§1) 40 μL of 10 mM NADPH solution was added to each well. The final concentration of NADPH was 1 mM. The negative control samples were prepared by replacing NADPH with 40 μL of ultra-pure H2O. Samples were prepared in duplicate. Negative controls were prepared in singlet.
(§2) This study was performed in duplicate.
(§3) LC/MS analysis was performed for all samples from this study using a Shimadzu liquid chromatograph separation system equipped with degasser DGU-20A5R; solvent delivery unit LC-30AD; system controller SIL-30AC; column oven CTO-30A; CTC Analytics HTC PAL System. Mass spectrometric analysis was performed using a Triple Quad™ 5500 instrument.
(§4) All calculations were carried out using Microsoft Excel.
(§5) All calculations were carried out using Microsoft Excel. Peak areas were determined from extracted ion chromatograms.

[3] = Liver microsomes stability, rat; conditions: for half-life at 2 μM / microsomal CLint at 2 μM: male, rat; for half-life at 2 μM / microsomal CLint at 2 μM / Remaining Percentage (%) after 60 min, Rat, With cofactors / Remaining Percentage (%) after 60 min, Rat, Without cofactors: rat liver microsomes
Experimental: as §1, §2, §3, §4, §5

[4] = Caco-2, pH 7.4, Percentage recovery (%) A→B, Caco-2, A→B
[5] = Caco-2, pH 7.4, Percentage recovery (%) B→A, Caco-2, B→A

human 5-HT2A receptor, sequence (P28223 whole entry): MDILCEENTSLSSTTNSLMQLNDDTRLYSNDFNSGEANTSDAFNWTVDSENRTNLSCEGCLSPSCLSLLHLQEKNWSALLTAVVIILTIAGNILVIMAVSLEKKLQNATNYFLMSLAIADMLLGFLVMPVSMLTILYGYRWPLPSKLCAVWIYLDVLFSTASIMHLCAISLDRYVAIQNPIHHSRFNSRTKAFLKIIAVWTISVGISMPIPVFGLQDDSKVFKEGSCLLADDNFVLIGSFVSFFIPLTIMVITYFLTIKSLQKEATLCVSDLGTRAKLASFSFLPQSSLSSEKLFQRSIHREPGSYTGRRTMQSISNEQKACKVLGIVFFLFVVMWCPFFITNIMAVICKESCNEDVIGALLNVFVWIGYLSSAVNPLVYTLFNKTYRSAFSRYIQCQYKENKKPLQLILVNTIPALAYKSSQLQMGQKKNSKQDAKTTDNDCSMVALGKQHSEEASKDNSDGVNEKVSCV

Row | Structure (SMILES) | IC50 (human 5-HT2A receptor) [nM] | Papp A→B at 2 h, 5 µM [1] [×10⁻⁶ cm/s] | Papp B→A at 2 h, 5 µM [1] [×10⁻⁶ cm/s] | efflux ratio at 2 h, 5 μM [1] | recovery at 2 h, 5 μM [1, 4] [%] | recovery at 2 h, 5 μM [1, 5] [%] | half-life at 2 μM [2] [min] | microsomal CLint at 2 μM [2] [µL/min/mg] | Remaining Percentage (%) after 60 min, Mouse, With cofactors [2] [%] | Remaining Percentage (%) after 60 min, Mouse, Without cofactors [2] [%] | half-life at 2 μM [3] [min] | microsomal CLint at 2 μM [3] [µL/min/mg] | Remaining Percentage (%) after 60 min, Rat, With cofactors [3] [%] | Remaining Percentage (%) after 60 min, Rat, Without cofactors [3] [%] | t1/2 Mouse ([2]; mouse liver microsomes with NADPH, 2 μM) [min] | t1/2 Rat ([3]; rat liver microsomes with NADPH, 2 μM) [min]
1 | CN1CCC[C@@H]1Cc1c[nH]c2cccc(O)c12 [Compound 10, (R)-3-((1-methylpyrrolidin-2-yl)methyl)-1H-indol-4-ol] | 219 | 23.2 | 18.8 | 0.81 | 82.7 | 92 | – | – | – | – | – | – | – | – | – | –
2 | [2H]C([2H])(c1c[nH]c2cccc(O)c12)[C@H]1CCCN1C([2H])([2H])[2H] [Compound 13, (R)-3-((1-(methyl-d3)pyrrolidin-2-yl)methyl-d2)-1H-indol-4-ol] | 219 | – | – | – | – | – | – | – | – | – | – | – | – | – | – | –
3 | CN1CCC[C@@H]1Cc1c[nH]c2cccc(OC(=O)CCCC(=O)Oc3cccc4[nH]cc(C[C@H]5CCCN5C)c34)c12 [Compound I-13, Bis(3-(((R)-1-methylpyrrolidin-2-yl)methyl)-1H-indol-4-yl) glutarate] | 37 | 0.63 | 4.1 | 6.5 | 94.7 | 110 | < 4.51 | > 307 | 0 | 0 | < 4.51 | > 307 | 0 | 0 | – | –
4 | [2H]C([2H])(c1c[nH]c2cccc(OC(=O)CCCC(=O)Oc3cccc4[nH]cc(C([2H])([2H])[C@H]5CCCN5C([2H])([2H])[2H])c34)c12)[C@H]1CCCN1C([2H])([2H])[2H] [Compound I-22, bis(3-(((R)-1-(methyl-d3)pyrrolidin-2-yl)methyl-d2)-1H-indol-4-yl) glutarate] | 44.8 | < 0.25 | 1.01 | > 4.08 | < 126 | 101 | < 4.51 | > 307 | 0 | 0 | < 4.51 | > 307 | 0 | 0.22 | – | –
5 | CN(C)CCc1c[nH]c2cccc(O)c12 [Psilocin, 4-hydroxy-N,N-dimethyltryptamine, reference compound] | – | 24.6 | 18.7 | – | 100 | 102 | – | – | 96.89 | – | – | – | 62.68 | – | 141.71 | 89.01
